Data published in US12194039B2, “Methods of treating heart failure by administering omecamtiv mecarbil” (Cytokinetics, Inc., priority 2020, dated 2025).
Read-outs that look alike come from different tables or passages of the source.

Test system: patients with HFrEF by ejection fraction quartile
Type: in vivo, human
Set-up: Change from baseline in KCCQ Total Symptom Score, least square mean / KCCQ Total Symptom Score Inpatient, Treatment Difference, least squares mean / KCCQ Total Symptom Score Outpatient, Treatment Difference, least squares mean / KCCQ Total Symptom Score, Treatment Difference, least squares mean: scale not given here
Details: for Adjudicated First Major Cardiac Ischemic Events, % / Adjudicated First Stroke, % / Adverse Event: Ventricular Tachyarrhythmia, % / All-cause Death (%) / All-cause Death Rate / All-cause Death n/N / Any treatment Emergent Serious Adverse Events, % / Positively Adjudicated Myocardial Infarction, % / Serious Adverse Event: Ventricular Arrhythmia Requiring Treatment, % / 1st HF Hospitalization (%) / 1st HF Hospitalization Rate / 1st HF Hospitalization n/N / First HF Event (%) / First HF Event Rate / First HF Event n/N / Primary Outcome (%) / Primary Outcome Rate / Primary Outcome n/N / Total HF Events, Events / Total HF Events, Rate / Total HF Hospitalizations, Events / Total HF Hospitalizations, Rate: OM group; for Adjudicated First Major Cardiac Ischemic Events, Relative Risk / Adjudicated First Stroke, Relative Risk / Adverse Event: Ventricular Tachyarrhythmia, Relative Risk / All-cause Death ARR / All-cause Death HR (95% CI) / Any treatment Emergent Serious Adverse Events, Relative Risk / Positively Adjudicated Myocardial Infarction, Relative Risk / Serious Adverse Event: Ventricular Arrhythmia Requiring Treatment, Relative Risk / 1st HF Hospitalization ARR / 1st HF Hospitalization HR (95% CI) / First HF Event ARR / First HF Event HR (95% CI) / Primary Outcome ARR / Primary Outcome HR (95% CI) / Total HF Events, ARR / Total HF Events, Ratio (95% CI) / Total HF Hospitalizations, ARR / Total HF Hospitalizations, Ratio (95% CI): OM vs placebo
Procedure: Continuous variables were summarized via means and standard deviations or medians and interquartile ranges, as appropriate. Categorical variables are summarized with counts and percentages. Tests of trend across categories were conducted via linear regression, Cuzick's non-parametric trend test, and Chi-squared tests of trend, respectively. Treatment effects on continuous outcomes were assessed via linear regression models adjusted for the corresponding baseline value of the parameter of interest. Survival analyses were conducted using Poisson regression models to estimate incidence rates, rate differences, and rate ratios and Cox proportional hazards models to estimate hazard ratios. […] To allow for potentially non-linear associations between ejection fraction and time-to-event outcomes, restricted cubic splines were utilized in the Poisson regression models with 3 knots. All analyses were conducted using STATA 16 (College Station, Tex.). P-values <0.05 were considered statistically significant. Due to the exploratory nature of these analyses, no adjustments were made for multiple comparisons.
Within each randomization setting subgroup least squares mean is from the mixed model which includes baseline total symptom score value, region, baseline eGFR, scheduled visit, treatment group and interaction of treatment with scheduled visit as covariates. Influence of Ejection Fraction on the Treatment Effect of Omecamtiv Mecarbil

[1] = EF 23-28%, baseline to Week 24, vs placebo
[2] = EF 29-32%, baseline to Week 24, vs placebo

## COC(=O)N1CCN(Cc2cccc(NC(=O)Nc3ccc(C)nc3)c2F)CC1 [omecamtiv mecarbil]
EF22%
  Adjudicated First Major Cardiac Ischemic Events, %: 4.8%
  Adjudicated First Stroke, %: 1.5%
  Adverse Event: Ventricular Tachyarrhythmia, %: 9.8%
  All-cause Death (%): (29%)
  All-cause Death Rate: 17.0 per 100 patient years
  All-cause Death n/N: 329/1127
  Any treatment Emergent Serious Adverse Events, %: (60.7%)
  Positively Adjudicated Myocardial Infarction, %: 3.3%
  Serious Adverse Event: Ventricular Arrhythmia Requiring Treatment, %: 3.6%
  Adjudicated First Major Cardiac Ischemic Events, Relative Risk: RR: 1.19
  Adjudicated First Stroke, Relative Risk: RR: 0.65
  Adverse Event: Ventricular Tachyarrhythmia, Relative Risk: RR: 1.00
  All-cause Death ARR: 0.8 per 100 patient years
  All-cause Death HR (95% CI): 0.98 (0.84, 1.14)
  Any treatment Emergent Serious Adverse Events, Relative Risk: RR: 0.94
  Positively Adjudicated Myocardial Infarction, Relative Risk: RR: 1.22
  Serious Adverse Event: Ventricular Arrhythmia Requiring Treatment, Relative Risk: RR: 0.88
EF 23-28%
  1st HF Hospitalization (%): (27%)
  1st HF Hospitalization Rate: 17.8 per 100 patient years
  1st HF Hospitalization n/N: 295/1086
  Adjudicated First Major Cardiac Ischemic Events, %: 4.3%
  Adjudicated First Stroke, %: 1.8%
  Adverse Event: Ventricular Tachyarrhythmia, %: 8.3%
  All-cause Death (%): (26%)
  All-cause Death Rate: 14.4 per 100 patient years
  All-cause Death n/N: 278/1086
  Any treatment Emergent Serious Adverse Events, %: (56.9%)
  First HF Event (%): (28%)
  First HF Event Rate: 18.5 per 100 patient years
  First HF Event n/N: 304/1086
  Positively Adjudicated Myocardial Infarction, %: 2.7%
  Primary Outcome (%): (36%)
  Primary Outcome Rate: 24.0 per 100 patient years
  Primary Outcome n/N: 393/1086
  Serious Adverse Event: Ventricular Arrhythmia Requiring Treatment, %: 3.2%
  Total HF Events, Events: 577
  Total HF Events, Rate: 30.0 per 100 pt-yrs
  Total HF Hospitalizations, Events: 541
  Total HF Hospitalizations, Rate: 28.1 per 100 pt-yrs
  1st HF Hospitalization ARR: 1.8 per 100 patient years
  1st HF Hospitalization HR (95% CI): 0.86 (0.74, 1.01)
  Adjudicated First Major Cardiac Ischemic Events, Relative Risk: 1.00
  Adjudicated First Stroke, Relative Risk: 0.53
  Adverse Event: Ventricular Tachyarrhythmia, Relative Risk: 0.98
  All-cause Death ARR: 1.4 per 100 patient years
  All-cause Death HR (95% CI): 0.89 (0.76, 1.05)
  Any treatment Emergent Serious Adverse Events, Relative Risk: 0.96
  First HF Event ARR: 2.4 per 100 patient years
  First HF Event HR (95% CI): 0.84 (0.72, 0.98)
  Positively Adjudicated Myocardial Infarction, Relative Risk: 0.89
  Primary Outcome ARR: 3.3 per 100 patient years
  Primary Outcome HR (95% CI): 0.85 (0.74, 0.97)
  Serious Adverse Event: Ventricular Arrhythmia Requiring Treatment, Relative Risk: 1.04
  Total HF Events, ARR: 4.0 per 100 pt-yrs
  Total HF Events, Ratio (95% CI): 0.83 (0.68, 1.01)
  Total HF Hospitalizations, ARR: 3.2 per 100 pt-yrs
  Total HF Hospitalizations, Ratio (95% CI): 0.84 (0.69, 1.02)
[1]
  Creatinine, Treatment Difference: 0.01 mg/dL
  Heart rate, Treatment Difference: −1.7 bpm
  KCCQ Total Symptom Score, Treatment Difference, least squares mean: −0.6
  NT-proBNP (Ratio): 0.90
  Potassium, Treatment Difference: -0.01 mmol/L
  Systolic BP, Treatment Difference: −0.6 mmHg
  Troponin I (Ratio): 1.29
  Troponin I, Treatment Difference (95% CI): 4 (3, 5) ng/L
EF 29-32%
  1st HF Hospitalization (%): (27%)
  1st HF Hospitalization Rate: 17.6 per 100 patient years
  1st HF Hospitalization n/N: 279/1015
  Adjudicated First Major Cardiac Ischemic Events, %: 4.1%
  Adjudicated First Stroke, %: 2.4%
  Adverse Event: Ventricular Tachyarrhythmia, %: 6.9%
  All-cause Death (%): (26%)
  All-cause Death Rate: 13.9 per 100 patient years
  All-cause Death n/N: 260/1015
  Any treatment Emergent Serious Adverse Events, %: (57.3%)
  First HF Event (%): (28%)
  First HF Event Rate: 18.2 per 100 patient years
  First HF Event n/N: 286/1015
  Positively Adjudicated Myocardial Infarction, %: 2.2%
  Primary Outcome (%): (37%)
  Primary Outcome Rate: 23.8 per 100 patient years
  Primary Outcome n/N: 375/1015
  Serious Adverse Event: Ventricular Arrhythmia Requiring Treatment, %: 2.1%
  Total HF Events, Events: 506
  Total HF Events, Rate: 27.1 per 100 pt-yrs
  Total HF Hospitalizations, Events: 472
  Total HF Hospitalizations, Rate: 25.3 per 100 pt-yrs
  1st HF Hospitalization ARR: −2.1 per 100 patient years
  1st HF Hospitalization HR (95% CI): 1.19 (1.01, 1.42)
  Adjudicated First Major Cardiac Ischemic Events, Relative Risk: 1.08
  Adjudicated First Stroke, Relative Risk: 0.83
  Adverse Event: Ventricular Tachyarrhythmia, Relative Risk: 0.96
  All-cause Death ARR: −2.0 per 100 patient years
  All-cause Death HR (95% CI): 1.19 (0.99, 1.42)
  Any treatment Emergent Serious Adverse Events, Relative Risk: 0.99
  First HF Event ARR: −1.3 per 100 patient years
  First HF Event HR (95% CI): 1.13 (0.96, 1.33)
  Positively Adjudicated Myocardial Infarction, Relative Risk: 1.00
  Primary Outcome ARR: −1.4 per 100 patient years
  Primary Outcome HR (95% CI): 1.11 (0.96, 1.28)
  Serious Adverse Event: Ventricular Arrhythmia Requiring Treatment, Relative Risk: 0.78
  Total HF Events, ARR: 0.6 per 100 pt-yrs
  Total HF Events, Ratio (95% CI): 1.14 (0.93, 1.40)
  Total HF Hospitalizations, ARR: −0.1 per 100 pt-yrs
  Total HF Hospitalizations, Ratio (95% CI): 1.18 (0.96, 1.46)
[2]
  Creatinine, Treatment Difference: 0.01 mg/dL
  Heart rate, Treatment Difference: −1.9 bpm
  KCCQ Total Symptom Score, Treatment Difference, least squares mean: +0.3
  NT-proBNP (Ratio): 0.95
  Potassium, Treatment Difference: -0.01 mmol/L
  Systolic BP, Treatment Difference: −0.6 mmHg
